Assay results published in patent US11141451B2, “Pharmaceutical composition and health functional food comprising oat extract avenanthramide C or derivative thereof as effective ingredient for prevention or treatment of neurodegenerative disease” (INDUSTRY FOUNDATION OF CHONNAM NATIONAL UNIVERSITY, priority 2016, dated 2021).

What was measured:
[1] = test system: long-term potentiation (LTP) in hippocampal slice of C57BL/6 mouse; assay: LTP induction (fEPSP, Schaffer-Collateral stimulation) in hippocampal slices treated with amyloid-β; type: cell-based
Procedure: (§1) The mice of Example 1 were anesthetized and decapitated to excise brains. The extracted brains were kept in a cooled artificial cerebrospinal fluid (aCSF) (124 mM NaCl, 3 mM KCl, 26 mM NaHCO3, 2 mM CaCl2, 1 mM MgSO4, 10 mM Glucose, 1.25 mM NaH2PO4, and 2 mM CaCl2) saturated with 95% oxygen. Hippocampal slices were sampled from the brains, and the hippocampal slice samples were prepared with a thickness of 400 μm. Then, the hippocampal slice samples were recovered in the aCSF (124 mM NaCl, 3 mM KCl, 26 mM NaHCO3, 2 mM CaCl2, 1 mM MgSO4, 10 mM Glucose, 1.25 mM NaH2PO4, and 2 mM CaCl2) saturated with 95% oxygen at a temperature of 22 to 25° C. for 1 hour, and then used in the experiment.
(§2) For LTP induction, the hippocampal slice samples were located in a recording chamber, respectively, and then were observed by analyzing a field excitatory postsynaptic potential (fEPSP) by stimulation of Schaffer-Collateral fiber, while applying stimulations to the samples with 100 Hz every 200 ms, and the experiment was performed for 90 minutes. During the experiment, the aCSF was supplied by flowing with a rate of 2 to 3 ml/min at 30° C., and the obtained experimental results were compared using the ANOVA test known in the art. The obtained results are illustrated in FIGS. 1 to 7.
In order to examine effects of avenanthramide C methyl ester according to the present invention on the LTD in a hippocampal slice of a mouse, an LTP comparison experiment was performed in the same method as Experimental Example 1, and the results thereof are illustrated in FIGS. 14A to 14C.
An LTP comparison experiment was performed by treating the samples with amyloid-β and β-glucan in amounts as illustrated in Table 2 below two hours before the experiment by using the same method as in Experimental Example 1, except that β-glucan was used instead of avenanthramide C according to the present invention. The obtained results are illustrated in FIGS. 18 to 21.

GSK3β [2] = assay: GSK3β activity by western blotting (GSK3αβ and phosphorylated GSK3β S9) in hippocampal slices treated with amyloid-β; type: cell-based, mouse
Procedure: as §1
Thereafter, RIPA [50 mM Tris-HCl (PH 7.5), 150 mM NaCl, 1% Nonidet P-40, 0.5% sodium deoxycholate, 0.1% SDS, 1 mM phenylmethylsulfonyl fluoride (PMSF), 1 mM DTT, and 2 μg of leupeptin and aprotinin, respectively, were dissolved therein. The crushed cells were centrifuged with 12,000 g at 4° C. for 20 minutes, and the resulting soluble fractions were denatured in a Laemmli buffer and subjected to sodium dodecyl sulfate-polyacrylamide gel electrophoresis (SDS-PAGE). After gel electrophoresis, the separated proteins were transferred to a polyvinylidene difluoride (PVDF) membrane using electroblotting. The membrane was blocked with AMRESCO, RAPIDBLOCK solution (pH 7) and subjected to blotting by using enhanced chemiluminescence (ECL). For blotting, an antibody for GSK3αβ and an antibody for phosphorylated GSK3β (S9) were used. The obtained results are illustrated in FIGS. 8 and 9. GSK3β is an enzyme whose activity is inhibited by the phosphorylation of serine residue 9, and is known as a modulator of a wide range of functions such as energy metabolism, cell proliferation, apoptosis and the like.
In order to examine effects of avenanthramide C methyl ester according to the present invention on activity of GSK3β in a hippocampal slice of a mouse, the same western blotting as Experimental Example 2 was performed, and the results thereof are illustrated in FIG. 15.

[3] = test system: long-term potentiation (LTP) in hippocampal slice of Tg2576 induced AD mouse; assay: LTP induction in hippocampal slice of Tg2576 induced AD mouse; type: cell-based; details: 7-month-old Tg2576 mouse hippocampal slice, 50 μM compound
Procedure: as §1, §2
(§3) In order to examine effects of avenanthramide C according to the present invention on the LTD in a hippocampal slice of a 7-month-old Tg2576 induced AD mouse, an LTP comparison experiment was performed using a hippocampal slice of a gene manipulated mouse in the same method as Experimental Example 1, and the results thereof are illustrated in FIGS. 12A and 12B.
as §3, with “B methyl ester” for “C”, “performed in the same method as Experimental Example 1” for “performed”, “mouse,” for “mouse in the same method as Experimental Example 1,”, “16A” for “12A”, “16B. […]” for “12B.”

GSK3β [4] = assay: GSK3β activity by western blotting in hippocampal slice of 5×FAD induced AD mouse; type: cell-based; details: 4-month-old 5×FAD mouse hippocampal slice, 50 μM compound, versus untreated
Procedure: as §1
(§4) Thereafter, RIPA [50 mM Tris-HCl (PH 7.5), 150 mM NaCl, 1% Nonidet P-40, 0.5% sodium deoxycholate, 0.1% SDS, 1 mM phenylmethylsulfonyl fluoride (PMSF), 1 mM DTT, and 2 μg of leupeptin and aprotinin, respectively, were dissolved therein. The crushed cells were centrifuged with 12,000 g at 4° C. for 20 minutes, and the resulting soluble fractions were denatured in a Laemmli buffer and subjected to sodium dodecyl sulfate-polyacrylamide gel electrophoresis (SDS-PAGE). After gel electrophoresis, the separated proteins were transferred to a polyvinylidene difluoride (PVDF) membrane using electroblotting. […]

GSK3β [5] = assay: GSK3β activity by western blotting in hippocampal slice of Tg2576 induced AD mouse; type: cell-based; details: 7-month-old Tg2576 mouse hippocampal slice, 50 μM compound, versus untreated
Procedure: as §1, §4

[6] = test system: long-term potentiation (LTP) in hippocampal slice of 5×FAD induced AD mouse; assay: LTP induction in hippocampal slice of 5×FAD induced AD mouse; type: cell-based
Procedure: as §1
as §2, with “7. […]” for “7.”

[7] = hippocampal slice treated with 500 nM amyloid-β and 50 μM compound together
[8] = hippocampal slice treated with 500 nM amyloid-β and 500 μM compound together

Which results are given for COC(=O)c1cc(O)ccc1NC(=O)/C=C/c1ccc(O)c(O)c1 [avenanthramide C methyl ester]?
LTP induction [1, 7]: induced; activity of GSK3β (GSK3β [2]; [7]): inhibited

With O=C(/C=C/c1ccc(O)cc1)Nc1ccc(O)cc1C(=O)O [avenanthramide A] as the molecule, how does the LTP induction [3] read?
The LTP induction was “induced”.

What does the source list for O=C(/C=C/c1ccc(O)c(O)c1)Nc1ccc(O)cc1C(=O)O [avenanthramide C]?
activity of GSK3β (GSK3β [4]): more inhibited; LTP induction [3]: induced; LTP induction ([1]; hippocampal slice treated with 500 nM amyloid-β and 10 μM compound together): not induced; LTP induction [1, 7]: induced; LTP induction [1, 8]: induced; LTP induction ([1]; hippocampal slice treated with only 50 μM compound, no amyloid-β): induced; LTP induction ([1]; hippocampal slice treated with only 500 μM compound, no amyloid-β): induced; toxicity in hippocampal slice (LTP experiment) ([1]; only 500 μM compound, no amyloid-β): not exhibiting toxicity; activity of GSK3β (GSK3β [5]): more inhibited; LTP induction ([6]; 4-month-old 5×FAD mouse hippocampal slice, 50 μM compound): induced; toxicity in hippocampal slice (GSK3β experiment) (GSK3β [2]; 500 nM amyloid-β and 500 μM compound together): without toxicity; activity of GSK3β (GSK3β [2]; [7]): inhibiting the activity of GSK3β; activity of GSK3β (GSK3β [2]; [8]): inhibited

COc1cc(/C=C/C(=O)Nc2ccc(O)cc2C(=O)O)ccc1O [avenanthramide B] was tested. Which LTP induction [3] did it give?
Its LTP induction is “slightly induced”.

How did the LTP induction ([1]; hippocampal slice treated with 500 nM amyloid-β and 80 μg/ml β-glucan together) turn out when β-glucan [reference compound] was run?
The LTP induction was “not induced”.

And the LTP induction ([1]; hippocampal slice treated with only 80 μg/ml β-glucan, no amyloid-β)?
Its LTP induction is “induced”.

What about the LTP induction ([6]; induced AD mouse hippocampal slice, 80 μg/ml β-glucan) of the same molecule?
Its LTP induction is “not induced”.
